Results: PubChem BioAssay AID1322 (NMMLSC, 2008)
The source made the active and inactive calls. The rule behind the calls is not given here.

The compounds below were run against Bcl-2-like protein 1 (Homo sapiens) (UniProt Q07817) (assay: Bim-Bcl-XL interaction inhibitors, potency, dose response, biochemical, multiplexed, bead flow cytometry, human Bcl-XL (AID 1322; for inhibition: test concentration not given here)). Conditions: Bead-based flow cytometry, Bim peptide-Bcl-XL binding, MCF.
Sequence of Bcl-2-like protein 1 (Homo sapiens) (Q07817 whole entry, looked up): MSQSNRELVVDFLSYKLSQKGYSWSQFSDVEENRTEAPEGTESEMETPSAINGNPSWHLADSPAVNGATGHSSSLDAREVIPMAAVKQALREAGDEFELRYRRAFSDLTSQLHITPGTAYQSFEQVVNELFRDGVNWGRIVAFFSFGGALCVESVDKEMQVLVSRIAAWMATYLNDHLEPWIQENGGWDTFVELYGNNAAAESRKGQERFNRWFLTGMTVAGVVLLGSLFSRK

SMILES | outcome | EC50
BrC(=C\c1ccccc1)/C=N/N1CCN(c2ccccc2)CC1 | inactive | 
CNC(=O)CC1C(=O)N(Cc2ccccc2)C(=S)N1NC(=O)c1cccc(F)c1 (stereo not given) | inactive | 
Clc1nc2ccccc2cc1/C=N/Nc1nc2ccccc2[nH]1 |  | inactive
CCOc1cc(CNc2ccc(N3CCCCC3)cc2)cc(Br)c1OCC(=O)NC(C)(C)C | inactive | 
COc1ccc(C)cc1Nc1ccc(C(=O)O)cc1[N+](=O)[O-] | inactive | 
FC(F)(F)c1ccc2c(c1)C1C=CCC1C(c1ccncc1)N2 (stereo not given) | inactive | 
COc1cc(/C=C2/NC(=O)N(Cc3ccccc3F)C2=O)ccc1O | inactive | 
O=C1CCc2cc(S(=O)(=O)NCCCC(=O)N3CCN(Cc4ccc5c(c4)OCO5)CC3)ccc2N1 | inactive | 
CC(C)c1ccc(C2CC(c3ccc(Br)cc3)=NN2C(N)=S)cc1 (stereo not given) | inactive | 
Cc1ccc(/C=C2/NC(=O)N(Cc3ccccc3)C2=O)o1 | inactive | 
O=C(CCCN1C(=O)c2cccc3cccc(c23)C1=O)N1CCN(c2ccccn2)CC1 | inactive | 
CCc1cccc(CC)c1NC(=S)N1CCn2cccc2C1c1cccnc1 (stereo not given) | inactive | 
COc1cc(/C=N/Nc2nc3c(c(=O)n(C)c(=O)n3C)n2Cc2ccccc2)ccc1OC(=O)c1ccco1 | inactive | 
CSc1n[nH]c2nc3c(c(=O)n12)C1(CCCC1)Cc1ccccc1-3 | inactive | 
CCOc1cc(NC(=S)NC)c(OCC)cc1NC(=O)c1ccc(OC)cc1 | inactive | 

Same assay, conditions: Bead-based flow cytometry, Bim peptide-Bcl-XL binding, MCF

SMILES | inhibition
Cc1ccccc1OCC(=O)N/N=C/c1ccccn1 | inactive
CC1=NN(c2ccc(C)cc2)C(=O)/C1=C\c1ccc(Br)s1 | inactive
O=C1C(=O)c2ccc(-c3ccccc3)cc2-c2ccccc21 | inactive
CC(=O)NC(=O)Nc1sc(=S)n(C)c1C | inactive
CCOC(=O)c1sc(NC(=O)c2ccncc2)c(C#N)c1C | inactive
CCOC(=O)c1cccc(Nc2ncnc3ccccc23)c1 | inactive
Cc1ccc(/C=C/C2=Cc3c(sc(NC(=O)CSc4n[nH]c(N)n4)c3C#N)C(C)(C)C2)o1 | inactive
Cc1cc(C)nc(/N=c2/ssnc2Cl)c1 | inactive
Cc1cc(-c2nn(-c3ccccc3)cc2/C=C2\SC(N)=NC2=O)ccc1OC(C)C | inactive
COC(=O)c1sc2nc[nH]c(=O)c2c1C | inactive
CNC(=S)N(Cc1cccs1)Cc1cc2ccc(OC)cc2[nH]c1=O | inactive
COc1ccccc1C1=Nc2cccc3cccc(c23)N1 | inactive
O=C1C(Cl)=C(N2CCN(c3ccccc3[N+](=O)[O-])CC2)C(=O)c2ccccc21 | inactive
CC(C)CNC(=O)c1cccc(NC(=O)c2ccc(Cl)c([N+](=O)[O-])c2)c1 | inactive
O=[N+]([O-])c1ccc(N/N=C/c2ccc(O)c(O)c2O)c(S(=O)(=O)N2CCOCC2)c1 | inactive
Cc1ccc(/C=C/C(=O)c2ccccc(=O)c2O)cc1C | inactive
CNc1ccc(Br)cc(C(=O)/C=C/c2cc(OC)ccc2OC)c1=O | inactive
CC1(C)CC(NC(=O)COc2ccc([N+](=O)[O-])cc2)CC(C)(C)N1 | inactive
CCOC(=O)C1CCN(C(=O)Nc2ccc3nc(-c4ccco4)c(-c4ccco4)nc3c2)CC1 | inactive
S=c1[nH]cc(-c2ccccc2)n1-c1ccccc1Cl | inactive

SMILES | inhibition
Cc1cccc(NC(=S)N2CCn3cccc3C2c2cccnc2)c1 (stereo not given) | inactive
CS(=O)(=O)NN1C(=O)c2ccccc2NC1c1cccs1 (stereo not given) | inactive
N#C/C(=C(/O)CN1CCN(c2ccccc2F)CC1)c1nc(-c2ccccc2)cs1 | inactive
O=C(c1cnccn1)N1CCN(c2ccccc2F)CC1 | inactive
Cc1cc(NC(=O)CSc2nnc(-c3cccnc3)n2Cc2ccccc2)no1 | inactive
COc1ccc(C2(NC(C)=O)CCN(C(=O)c3ccco3)CC2)cc1 | inactive
COc1ccc(NC(=O)c2cccs2)cc1 | inactive
Cc1c(NC2=C(Cl)C(=O)N(c3ccccc3)C2=O)c(=O)n(-c2ccccc2)n1C | inactive
CC1=C2C(CCS2(=O)=O)CC2(C1)C(=O)OC(C)(C)OC2=O (stereo not given) | inactive
O=C(COc1ccccc1)Nc1ccc2c(c1)Cc1cc(NC(=O)COc3ccccc3)ccc1-2 | inactive
C(=C\c1ccccc1)/CSc1nnc(-c2ccccn2)n1Cc1ccco1 | inactive
Cc1ccc(C(=O)CCC(=O)Nc2ccc(Cl)c(S(=O)(=O)Nc3cccc(Cl)c3)c2)cc1 | inactive
CCOc1cc(S(=O)(=O)N2CCCCC2)ccc1F | inactive
CCOC(=O)CSC1=NC(=O)/C(=C\c2ccc(OC(C)=O)cc2)S1 | inactive
CCCCC(=O)Nc1ccc(C(=O)N2CCC(C(=O)OCC)CC2)cc1 | inactive
O=[N+]([O-])c1ccc(N2CCN(c3ccc(O)cc3)CC2)c(Cl)c1 | inactive
O=C(Nc1ccccc1)c1ccc2nc(-c3ccco3)c(-c3ccco3)nc2c1 | inactive
CCCCOc1ccc(Cc2c(Cl)nc(SC)nc2N2CCOCC2)cc1 | inactive
O=C(CSc1ccc(-c2ccccc2)nn1)NCc1ccco1 | inactive
O=C1/C(=C\c2ccco2)NC(=S)N1c1ccccc1 | inactive

SMILES | inhibition
Cc1c(NC2=C(Cl)C(=O)N(c3ccccc3Cl)C2=O)c(=O)n(-c2ccccc2)n1C | inactive
Cc1ccc(-c2cc(C(=O)Nc3cccnc3)c3ccccc3n2)o1 | inactive
Cc1cc(N)ccc1N1CCCC1 | inactive
COc1ccc(CC(=O)Nc2ccc(-c3nc4cc(C)ccc4o3)c(O)c2)cc1OC | inactive
CN(C)c1ccc(/C=C2/SC(=O)N(CCN=C3NS(=O)(=O)c4ccccc43)C2=O)cc1 | inactive
Cc1ccc(-c2nnc(Cc3ccc(Cl)cc3)o2)cc1 | inactive
Cc1c(N2C(=O)c3ccc4c5c(ccc(c35)C2=O)CC4)c(=O)n(-c2ccccc2)n1C | inactive
COc1ccccc1OCc1ccc(C(=O)Nc2ccccc2F)cc1 | inactive
CCN(CC)c1ccc(NC(=O)COc2ccccc2C#N)cc1S(=O)(=O)Nc1ccccc1OC | inactive
COc1ccc(NC(=O)c2ccc(CN3CCN(c4ccccc4)CC3)cc2)cc1 | inactive
Cc1ccc(-c2cc(-c3ccc(F)cc3)c(C#N)c(N)n2)o1 | inactive
COC(=O)Cc1cc(=O)[nH]c(Nc2nc3ccccc3o2)n1 | inactive
CCOc1c(Cl)cc(CNc2ccc(N3CCCC3)cc2)cc1OC | inactive
COc1ccccc1-n1c(-c2ccc(Cl)cc2)c[nH]c1=S | inactive
CN(C)c1ccc(C=C2C(=O)NC(=O)NC2=O)cc1[N+](=O)[O-] | inactive
Nc1ccc(Nc2nc(-c3ccncc3)cs2)cc1 | inactive
COc1ccc(S(=O)(=O)NCCSc2ccc(Cl)cc2)cc1OC | inactive
CS(=O)(=O)NN1C(=O)c2ccccc2NC1c1cccc2cccnc12 (stereo not given) | inactive
CCc1nn2cc(C(=O)c3cc(C)ccc3O)cnc2c1-c1ccc(F)cc1 | inactive
C=CCn1c(SCC(=O)Nc2ccc3c(c2)OCO3)nnc1-c1cc(Br)ccc1O | inactive
